Reference: patent US11376271B1, “Methods of ameliorating the effects of alcoholic liver damage” (FULGENT LIFE INC., priority 2021, dated 2022)

Assays:
[1] = test system: C2C12, Neuro2a and AML12 cells; assay: Toxicity: total cell number / trypan blue count after 24 h; assay type: cell-based; conditions: 1 mM
Procedure: The sharp increase of NAD+ concentration indicates a possible toxicity to cells. To assess this toxicity, C2C12, Neuro2a and AML12 cells were treated with 1 mM NADH for 24 hours, and then the total cell numbers were measured. […] The cells were stained with trypan blue and then counted with a hemocytometer. […] The Annexin V/PI staining kit and Caspases3/7/SYTOX dead cell staining kit (Life Technologies) were used and cells were counted with a BD FACSCelesta™ flow cytometer. The quadrants of apoptotic cells, necrotic cells and living cells were identified and quantified according to the manufacturer's instructions.
To examine apoptotic markers, AML12 cells were stained for Annexin V and Caspase 3/7, and cells were counted with a flow cytometer. […] Quadrants with live cells (brown), necrotic cells (gray) and apoptotic cells (blue) were quantified.

male C57BL/6J mice [2] = assay: Tissue NAD+ content after intraperitoneal injection; assay type: in vivo; conditions: 4 hours
Procedure: In the below in vivo assays, C57BL/6J male mice (The Jackson Laboratory) (40 days of age) were used. They were kept under standard laboratory conditions with a temperature of 22±1° C., dark/light cycles of 12/12 h, and relative humidity of 55±5%. All animals had free access to food and water, except for indicated fasting periods (and where not indicated for fasting periods of 2 hours before administration).
[…] Specifically, ten 8-week-old male C57BL/6J mice (The Jackson Laboratory) were kept in polycarbonate cages under a 12-h light/dark cycle with free access to food and water. […] Four hours later, the blood samples were collected by cardiac puncture and the mice were executed. Liver, brain, muscle, and adipose tissues were collected, instantly frozen in liquid nitrogen, and then stored at −80° C. until performance of the NAD+ analyses. […] Four hours later, the mice were killed and tissue samples were collected. All animal studies were performed according to the Guidelines for the Care and Use of Experimental Animals. For this NAD+ assay, about 100 mg of frozen tissue was crushed in liquid nitrogen and ultrasonically homogenized in 7% perchloric acid, and then the solution was neutralized and subjected to the NAD+ determination described here.
Data are indicated as mean±SD.

male C57BL/6J mice [3] = assay: Liver histopathology by Oil Red O staining; assay type: in vivo; conditions: 500 mg/kg intragastric 15 min prior to 8 ml/kg ethanol
Procedure: Liver histopathology was detected by Oil Red 0 staining. According to the standard operating procedure, some liver tissues were fixed for histopathological assessment. The other part of the liver was stored at −80° C. […] frozen sections were stained with Oil Red 0 to detect liver steatosis. The stained sections were examined by a 400× optical microscope. The level of VLDL in serum samples was examined with a Bio-Tek synergy2 Multiscan Spectrum (Botten Instruments Co.).

male C57BL/6J mice [4] = assay: Liver triglyceride and serum VLDL (lipid metabolism); assay type: in vivo; conditions: 500 mg/kg intragastric 15 min prior to 8 ml/kg ethanol
Procedure: Liver samples were prepared with homogenization in cold isotonic saline. The homogenate (10%, w/v) was centrifuged at 4500 g for 10 minutes and the supernatant was used for biochemical analysis. The MDA, SOD and TG levels were determined with commercial kits (Abcam, #ab118970; Thermofisher, #EIASODC and Abcam, ab65336) according to the manufacturer's instructions. The results were normalized to the total protein determined by BCA Protein Assay Kit (Abcam, #ab102536) according to the manufacturer's instructions. […] Liver histopathology was detected by Oil Red 0 staining. According to the standard operating procedure, some liver tissues were fixed for histopathological assessment. The other part of the liver was stored at −80° C. […] frozen sections were stained with Oil Red 0 to detect liver steatosis. The stained sections were examined by a 400× optical microscope. The level of VLDL in serum samples was examined with a Bio-Tek synergy2 Multiscan Spectrum (Botten Instruments Co.). To evaluate alcoholic liver injury, the index of liver lipid metabolism (i.e., the triglyceride (TG) level in liver tissue) and the activity of serum Very Low Density Lipoprotein (VLDL) were also measured in the mice treated as described above in connection with FIG. 9A. […] The data in both FIGS. 9A and 9B are expressed as mean±SD (n=8); *p<0.01 vs control; #p<0.01 vs alcohol exposure.

AML12 cells = assay: NAD+/NADH ratio in AML12 cells; conditions: 1 mM, 6 h, vs control

NC(=O)C1=CN([C@@H]2O[C@H](COP(=O)(O)OP(=O)(O)OC[C@H]3O[C@@H](n4cnc5c(N)ncnc54)C(O)C3O)C(O)C2O)C=CC1 (some centres unmarked) [NADH, nicotinamide adenine dinucleotide (NAD)+hydrogen (H)]
Trypan blue positive cells [1]: less than 5% | loss of cultured cells (total cell number) [1]: no obvious loss | increase of the concentration of NAD+ in the liver (male C57BL/6J mice [2]; 250 mg/kg intraperitoneal): 680% | NAD+-promoting effect in skeletal muscle (male C57BL/6J mice [2]; 1000 mg/kg intraperitoneal): lowest | content of NAD+ in blood, brain and fat (male C57BL/6J mice [2]; 1000 mg/kg intraperitoneal): increased several times | increase of NAD+ content in liver (male C57BL/6J mice [2]; 1000 mg/kg intraperitoneal): more than 7 times | degree of liver fatty degeneration (Oil Red O) (male C57BL/6J mice [3]): noticeably decreased | liver TG level vs alcohol exposure alone (male C57BL/6J mice [4]): decreased | liver index vs alcohol exposure alone (male C57BL/6J mice [4]): decreased | serum VLDL level vs alcohol exposure alone (male C57BL/6J mice [4]): decreased | NAD+/NADH ratio (AML12 cells): significantly increase
